In patent US12466839B2, “Allosteric AKT inhibitors for use in the treatment of Hereditary Hemorrhagic Telangiectasia” (VADERIS THERAPEUTICS AG, priority 2020, dated 2025):

How the values were obtained:
NK3 = biological target: T1, NK3 (Homo sapiens, UniProt P29371); test: Millipore Drug Discovery Safety and Liability Panel; type: cell-based
T1 construct: purchased Millipore

HCN4 = HCN4 (Homo sapiens, UniProt Q9Y3Q4); test: Cardiac ion channel profile; type: cell-based
CX3CR1 = biological target: T2, CX3CR1 (Homo sapiens, UniProt P49238); test: Millipore Drug Discovery Safety and Liability Panel; type: cell-based
T2 construct: purchased Millipore

MC5 = biological target: T3, MC5 (Homo sapiens, UniProt P33032); test: as above; type: cell-based
T3 construct: purchased Millipore

D1 = biological target: T4, D1 (Homo sapiens, UniProt P21728); test: as above; type: cell-based
T4 construct: purchased Millipore

ADRA1A = biological target: T5, ADRA1A (Homo sapiens, UniProt P35348); test: as above; type: cell-based
T5 construct: purchased Millipore

[1] = system: angiogenesis in C57Bl/6J mice retinas; test: Neonatal retinal angiogenesis model in wild-type mice; type: in vivo, mouse (C57Bl/6J); settings: 2.5 mg·kg−1
Description: (§1) For the retinal vascular network, quantification of the number of AV shunts per mouse was done manually. […] A custom own-lab made macro allowed automatic processing of the images, using the same processing and quantification parameters. Briefly, the brightness of the images was enhanced by modifying the pixel extreme values, which depends on the specific image histogram content. A Gaussian filter was applied to reduce the intensity in homogeneities. The filter order depended on the image resolution. Next, the threshold step was computed, based on a global threshold technique such as Otsu's method or Li's method, resulting in binary image. A median filter was then applied to eliminate potential local irregularities, which could cause false branching point detection. From the binary images, the vascular density was quantified (calculated as the ratio of pixels associated with the vessels divided by the total number of pixels in the image). For the other parameters, a skeleton of the images was first computed using ImageJ, then the total vascular length was quantified using the Measure Skeleton Length plug-in from ImageJ. The number of branch points was extracted from the Analyze Skeleton plug-in of ImageJ. All results were transferred to Microsoft Office Excel software and automatically rearranged using a lab custom-made program. As all images generated at each step of the processing were saved, a visual control was made to ensure that there were no aberrant results.
(§2) Statistical analysis was performed with Prism 7 software (GraphPad). For most of the experiments, 1-way ANOVA was used for multiple comparisons. Results are expressed as mean±SEM. For post hoc pairwise, the Dunnett's test was used. A value of *P<0.05, **P<0.01, ***P<0.001 or ****P<0.0001 denotes statistical significance. An in-group variation of around 15% in parameters related to blood vessel architecture changes has been previously observed by the inventors, therefore a difference between controls and mutant mice of around 20-30% was anticipated. It was therefore expected that a group of 8 mice per condition would reveal statistical differences.
(§3) Eyes were fixed in 4% paraformaldehyde (PFA) in PBS at room temperature for 10 min, retinas were dissected, post-fixed in 4% PFA in PBS at 4° C. overnight then processed for immunostaining. Retinas were permeabilized in PBS, 1% BSA and 0.5% Triton X-100 at 4° C. overnight, rinsed in PBS, washed twice in PBlec (PBS, pH 6.8, 1% Triton-X-100, 0.1 mM CaCl2, 0.1 mM MgCl2, 0.1 mM MnCl2), and then incubated in biotinylated Griffonia simplicifolia lectin (isolectin B4) (B-1205, Vector Laboratories, 1:50) in PBlec at 4° C. overnight. After 5 washes in PBS, samples were incubated with streptavidin Cy-3 (PA43001, Sigma-Aldrich, 1:100) and with a-SMA (clone 1A4) (F3777, Sigma-Aldrich) conjugated with FITC diluted in PBS, 0.5% BSA, and 0.25% X-100 at 4° C. for 2 h. After washing, flat whole-mount retinas were mounted in DAKO medium (S3023, Dako). Complete high-resolution 3-dimensional rendering of whole-mount retinas was acquired using Laser Scanning Microscope SP5 or SP8 (Leica).

SST4 = biological target: T6, SST4 (Homo sapiens, UniProt P31391); test: Millipore Drug Discovery Safety and Liability Panel; type: cell-based
T6 construct: Millipore

ADRB2 = biological target: T7, ADRB2 (Homo sapiens, UniProt P07550); test: as above; type: cell-based
T7 construct: purchased Millipore

NTR1 = biological target: T8, NTR1 (Homo sapiens, UniProt P30989); test: as above; type: cell-based
T8 construct: Millipore

PDK1 = PDK1 (Homo sapiens, UniProt O15530); test: Panel of 450 kinases and 10-point titration curve; type: biochemical
5-HT2C = biological target: T9, 5-HT2C (Homo sapiens, UniProt P28335); test: Millipore Drug Discovery Safety and Liability Panel; type: cell-based
T9 construct: purchased Millipore

Y2 = biological target: T10, Y2 (Homo sapiens, UniProt P49146); test: as above; type: cell-based
T10 construct: Millipore

[2] = system: AVM formation in Eng-iKO mice; test: Prevention of AVM formation in Eng-iKO mice (retinal vascular network); type: in vivo, mouse
Protocol: The Eng Flox/flox; cdh5-CreERT2 were injected with tamoxifen (50 μg) at P2 to […] once at P3, P4, P5 and P6. The same volume of vehicle was injected serving as control animals. Mice were then euthanized at P7 and retinas processed for immunofluorescence staining as described (Lebrin et al., as above).
The same volume of vehicle was injected serving as control animals. Mice were then euthanized at P7 and retinas processed for immunofluorescence staining as described (Lebrin et al., as above).
as §1, §2, §3

[3] = read-out: ANTAGONIST mean % inhibition

T1 sequence (P29371 whole entry): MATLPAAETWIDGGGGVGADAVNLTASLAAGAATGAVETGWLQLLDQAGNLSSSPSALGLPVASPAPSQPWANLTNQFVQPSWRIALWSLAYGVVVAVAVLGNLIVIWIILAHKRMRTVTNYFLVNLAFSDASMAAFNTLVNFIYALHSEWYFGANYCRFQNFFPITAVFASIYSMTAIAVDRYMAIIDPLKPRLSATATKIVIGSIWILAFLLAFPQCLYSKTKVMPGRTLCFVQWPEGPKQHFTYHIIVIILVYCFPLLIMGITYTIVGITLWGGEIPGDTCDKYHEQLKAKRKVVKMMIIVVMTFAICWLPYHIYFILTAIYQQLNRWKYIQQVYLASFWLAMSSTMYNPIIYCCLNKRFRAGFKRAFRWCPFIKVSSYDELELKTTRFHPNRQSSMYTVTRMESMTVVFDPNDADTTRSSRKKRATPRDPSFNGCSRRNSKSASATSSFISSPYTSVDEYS
T3 sequence (P33032 whole entry): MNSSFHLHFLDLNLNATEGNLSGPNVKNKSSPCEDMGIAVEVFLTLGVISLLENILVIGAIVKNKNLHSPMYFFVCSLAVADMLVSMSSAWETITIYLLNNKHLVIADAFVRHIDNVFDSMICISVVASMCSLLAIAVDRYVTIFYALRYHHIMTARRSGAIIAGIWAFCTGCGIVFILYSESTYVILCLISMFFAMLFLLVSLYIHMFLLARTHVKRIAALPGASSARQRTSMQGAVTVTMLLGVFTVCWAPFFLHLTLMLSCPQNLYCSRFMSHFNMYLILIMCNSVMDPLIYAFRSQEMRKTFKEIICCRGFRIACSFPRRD
T7 sequence (P07550 whole entry): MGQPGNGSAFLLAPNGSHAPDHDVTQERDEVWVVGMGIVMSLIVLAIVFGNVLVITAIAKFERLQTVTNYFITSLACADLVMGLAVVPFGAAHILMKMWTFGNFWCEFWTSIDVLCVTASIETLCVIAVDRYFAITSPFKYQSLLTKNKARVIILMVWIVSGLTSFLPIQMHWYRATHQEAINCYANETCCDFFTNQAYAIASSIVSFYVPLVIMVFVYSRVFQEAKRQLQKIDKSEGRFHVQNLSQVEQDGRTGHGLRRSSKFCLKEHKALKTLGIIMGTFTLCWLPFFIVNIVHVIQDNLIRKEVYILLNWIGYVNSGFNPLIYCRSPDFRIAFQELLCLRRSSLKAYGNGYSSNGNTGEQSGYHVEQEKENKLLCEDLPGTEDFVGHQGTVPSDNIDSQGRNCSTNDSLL
T4 sequence (P21728 whole entry): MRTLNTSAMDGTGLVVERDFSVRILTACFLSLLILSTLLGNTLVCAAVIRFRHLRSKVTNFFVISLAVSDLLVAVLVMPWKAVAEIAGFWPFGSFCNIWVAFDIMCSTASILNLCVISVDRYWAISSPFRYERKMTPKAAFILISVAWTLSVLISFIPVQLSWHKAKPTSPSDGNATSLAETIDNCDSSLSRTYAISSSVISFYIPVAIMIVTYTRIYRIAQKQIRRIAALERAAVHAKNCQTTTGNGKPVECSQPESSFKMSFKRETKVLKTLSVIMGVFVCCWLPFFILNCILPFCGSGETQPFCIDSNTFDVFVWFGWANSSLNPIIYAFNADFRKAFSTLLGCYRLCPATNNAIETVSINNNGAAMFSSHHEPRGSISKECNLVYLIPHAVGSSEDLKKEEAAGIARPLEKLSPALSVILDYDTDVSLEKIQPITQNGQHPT
T5 sequence (P35348 whole entry): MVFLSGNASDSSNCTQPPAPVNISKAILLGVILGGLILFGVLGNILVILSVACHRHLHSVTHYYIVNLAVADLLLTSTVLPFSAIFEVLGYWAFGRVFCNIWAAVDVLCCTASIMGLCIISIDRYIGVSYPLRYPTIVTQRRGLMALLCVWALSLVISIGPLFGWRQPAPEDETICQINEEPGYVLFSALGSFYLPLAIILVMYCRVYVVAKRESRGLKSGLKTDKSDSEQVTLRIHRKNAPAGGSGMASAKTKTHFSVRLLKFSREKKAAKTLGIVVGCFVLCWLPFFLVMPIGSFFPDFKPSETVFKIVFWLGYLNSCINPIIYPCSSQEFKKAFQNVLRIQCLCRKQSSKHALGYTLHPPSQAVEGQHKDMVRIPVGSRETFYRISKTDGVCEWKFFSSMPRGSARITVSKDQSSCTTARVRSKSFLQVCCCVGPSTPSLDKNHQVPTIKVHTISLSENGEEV
T6 sequence (P31391 whole entry, species assumed): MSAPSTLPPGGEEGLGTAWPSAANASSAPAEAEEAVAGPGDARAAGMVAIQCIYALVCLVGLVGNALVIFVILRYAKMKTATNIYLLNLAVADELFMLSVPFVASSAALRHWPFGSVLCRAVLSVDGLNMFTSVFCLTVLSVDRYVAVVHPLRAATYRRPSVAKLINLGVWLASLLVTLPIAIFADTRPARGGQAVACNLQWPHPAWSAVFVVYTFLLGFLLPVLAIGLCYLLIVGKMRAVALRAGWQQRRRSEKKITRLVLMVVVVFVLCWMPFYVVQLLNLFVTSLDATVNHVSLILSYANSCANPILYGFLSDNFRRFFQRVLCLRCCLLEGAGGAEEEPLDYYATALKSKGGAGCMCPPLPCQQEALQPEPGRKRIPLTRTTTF
T9 sequence (P28335 33-458, species assumed): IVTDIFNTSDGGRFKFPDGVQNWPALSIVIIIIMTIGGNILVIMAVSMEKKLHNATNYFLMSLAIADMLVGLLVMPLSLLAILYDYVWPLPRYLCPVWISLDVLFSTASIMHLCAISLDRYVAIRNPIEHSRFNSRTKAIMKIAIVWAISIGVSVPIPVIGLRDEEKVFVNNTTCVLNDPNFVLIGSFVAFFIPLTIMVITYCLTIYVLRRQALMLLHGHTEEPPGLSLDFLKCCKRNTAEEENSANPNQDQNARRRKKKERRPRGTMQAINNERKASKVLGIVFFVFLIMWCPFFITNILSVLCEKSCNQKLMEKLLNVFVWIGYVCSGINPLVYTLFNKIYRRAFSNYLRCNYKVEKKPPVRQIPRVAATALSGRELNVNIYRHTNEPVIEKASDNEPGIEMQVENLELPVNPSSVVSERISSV
T2 sequence (P49238 whole entry): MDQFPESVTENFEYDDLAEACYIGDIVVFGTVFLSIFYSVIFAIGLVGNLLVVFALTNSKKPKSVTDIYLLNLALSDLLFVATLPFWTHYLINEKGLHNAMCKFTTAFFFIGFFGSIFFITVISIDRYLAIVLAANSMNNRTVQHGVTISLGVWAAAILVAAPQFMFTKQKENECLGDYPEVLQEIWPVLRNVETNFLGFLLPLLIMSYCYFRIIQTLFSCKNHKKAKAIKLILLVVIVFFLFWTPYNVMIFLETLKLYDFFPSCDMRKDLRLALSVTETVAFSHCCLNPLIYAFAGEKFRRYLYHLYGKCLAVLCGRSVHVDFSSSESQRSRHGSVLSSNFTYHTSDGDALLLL
T10 sequence (P49146 whole entry): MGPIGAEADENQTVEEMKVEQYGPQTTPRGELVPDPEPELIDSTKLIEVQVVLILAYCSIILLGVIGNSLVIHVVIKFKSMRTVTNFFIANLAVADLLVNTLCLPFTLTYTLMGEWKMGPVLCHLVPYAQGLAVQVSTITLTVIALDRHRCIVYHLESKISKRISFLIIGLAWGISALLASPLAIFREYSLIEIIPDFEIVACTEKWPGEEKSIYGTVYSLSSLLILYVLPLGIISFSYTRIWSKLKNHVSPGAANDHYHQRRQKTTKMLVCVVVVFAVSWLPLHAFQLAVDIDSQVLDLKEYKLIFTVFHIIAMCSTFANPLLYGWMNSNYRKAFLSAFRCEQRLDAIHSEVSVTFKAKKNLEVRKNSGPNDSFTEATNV
T8 sequence (P30989 whole entry, species assumed): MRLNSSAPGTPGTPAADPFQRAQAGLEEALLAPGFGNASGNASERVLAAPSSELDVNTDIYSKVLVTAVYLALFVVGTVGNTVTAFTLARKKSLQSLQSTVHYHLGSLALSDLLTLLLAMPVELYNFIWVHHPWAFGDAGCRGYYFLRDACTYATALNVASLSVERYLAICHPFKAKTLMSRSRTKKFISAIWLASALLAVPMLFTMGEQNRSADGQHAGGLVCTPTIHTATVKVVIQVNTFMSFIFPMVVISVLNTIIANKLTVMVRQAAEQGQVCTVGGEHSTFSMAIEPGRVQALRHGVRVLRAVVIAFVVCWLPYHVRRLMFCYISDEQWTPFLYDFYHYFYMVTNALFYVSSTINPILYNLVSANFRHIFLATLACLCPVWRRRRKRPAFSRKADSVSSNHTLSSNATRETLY
PDK1, sequence (O15530 whole entry): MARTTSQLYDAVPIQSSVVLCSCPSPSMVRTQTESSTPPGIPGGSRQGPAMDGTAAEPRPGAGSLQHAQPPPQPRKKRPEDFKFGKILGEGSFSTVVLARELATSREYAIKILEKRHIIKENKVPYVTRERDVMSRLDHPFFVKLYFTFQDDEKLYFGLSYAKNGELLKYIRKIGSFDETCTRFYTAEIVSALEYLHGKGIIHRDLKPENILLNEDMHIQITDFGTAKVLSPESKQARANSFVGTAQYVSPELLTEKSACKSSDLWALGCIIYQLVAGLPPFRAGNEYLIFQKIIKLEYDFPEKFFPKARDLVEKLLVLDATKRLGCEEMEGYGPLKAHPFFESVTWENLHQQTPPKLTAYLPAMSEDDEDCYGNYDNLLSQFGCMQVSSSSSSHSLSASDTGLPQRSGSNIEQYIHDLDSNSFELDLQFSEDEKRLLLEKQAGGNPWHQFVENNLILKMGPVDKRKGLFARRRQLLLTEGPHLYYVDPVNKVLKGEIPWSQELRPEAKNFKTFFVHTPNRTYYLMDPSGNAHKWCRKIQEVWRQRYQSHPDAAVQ

`CCN1C(=O)COc2nc(-c3ccc(C4(N)CC(O)C4)cc3)c(-c3ccccc3)cc21.O=C(O)C(O)C(O)C(=O)O` [VAD044, 6-(4-(1-amino-3-hydroxycyclobutyl)phenyl)-1-ethyl-7-phenyl-1H-pyrido[2,3-b][1,4]oxazin-2(3H)-one L-tartrate] was tested, and the activation at 10 µM (NK3; NK3, 10 μM, read-out: AGONIST mean % increase in activity) was -0.4%, the inhibition at 10 µM (NK3; [3]) was 16.9% and the inhibition at 10 µM (HCN4) was less than 25%. For the same compound, the “AGONIST mean % increase in activity” value (CX3CR1; CX3CR1, 10 μM) was 0%, the inhibition at 10 µM (CX3CR1; [3]) was 0.6% and the activation at 10 µM (MC5; MC5, 10 μM, read-out: AGONIST mean % increase in activity) was -0.2%. The inhibition at 10 µM (MC5; [3]) was 8.4%, the activation at 10 µM (D1; D1, 10 μM, read-out: AGONIST mean % increase in activity) was 1.5% and the inhibition at 10 µM (D1; [3]) was 18.7%. For the same compound, the activation at 10 µM (ADRA1A; ADRA1A, 10 μM, read-out: AGONIST mean % increase in activity) was -0.7%, the inhibition at 10 µM (ADRA1A; [3]) was 9.9% and the “impact on normal angiogenesis” value [1] was “little or no impact on normal angiogenesis”. The activation at 10 µM (SST4; SST4, 10 μM, read-out: AGONIST mean % increase in activity) was -0.8%, the inhibition at 10 µM (SST4; [3]) was 16.5% and the activation at 10 µM (ADRB2; ADRB2, 10 μM, read-out: AGONIST mean % increase in activity) was 0.8%. The inhibition at 10 µM (ADRB2; [3]) was 6.1%, the activation at 10 µM (NTR1; NTR1, 10 μM, read-out: AGONIST mean % increase in activity) was -0.6% and the inhibition at 10 µM (NTR1; [3]) was 6.1%. It also gave an inhibition at 10 µM (PDK1; 10 μM) of 77%, an IC50 (PDK1; 10-point titration curve) greater than 10 µM and an activation at 10 µM (5-HT2C; read-out: AGONIST mean % increase in activity) of 0.8%. For the same compound, the inhibition at 10 µM (5-HT2C; [3]) was 21.9%, the activation at 10 µM (Y2; Y2, 10 μM, read-out: AGONIST mean % increase in activity) was -2.2% and the inhibition at 10 µM (Y2; [3]) was -5.7%. For the same compound, the “prevention of AVM shunt formation” value ([2]; 2.5 mg·kg−1) was “fully prevent AVM shunt formation”, the “density of the retinal vascular network” value ([2]; Eng-iKO mice) was “normalize the density” and the “number of branch points of the Eng-iKO vascular network” value ([2]; Eng-iKO mice) was “slightly reducing”. For the same compound, the “radial expansion of the Eng-iKO vascular network” value ([2]; Eng-iKO mice) was “slightly reducing”, the “prevention of AV shunt formation” value ([2]; Eng-iKO mice, 1.25 mg·kg-1) was “not to be effective” and the “prevention of AV shunt formation” value ([2]; Eng-iKO mice, 2.5 mg·kg-1 and above, at P3 and P5) was “efficiently prevented AV shunt formation”. It also gave a minimal effective dose ([2]; HHT1 (Eng-iKO) mouse model) of 2.5 mg/kg.
